Tested on: 186277-243-T-J2-PDC complex spheroid viability
Assay: Anticancer human tumor 186277-243-T-J2-PDC patient-derived colon adenocarcinoma cell line growth inhibition [POLQ]
Conditions: for IC50: curve of first compound; for viability, T/C: stronger effect = lower value; active = viability on the fitted dose curve at most 10% of control; inactive = the rest
In short: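 Patient-derived tumour cells were co-cultured with HUVEC and mesenchymal stem cells as multicellular spheroids at 37 °C. They were treated with POLQ inhibitors (novobiocin, ART-558, RP6685) alone or combined with other agents. Top concentrations were at or near clinical Cmax (otherwise 10 microM; SN-38 at 1 microM), decreasing in half-log steps.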

[1] = second compound 0.0316 µM, first compound 0.0316 µM
[2] = second compound 0.0316 µM, first compound 0.1 µM
[3] = second compound 0.0316 µM, first compound 0.316 µM
[4] = second compound 0.0316 µM, first compound 1 µM
[5] = second compound 0.0316 µM, first compound 3.16 µM
[6] = second compound 0.0316 µM, first compound 10 µM
[7] = second compound 0.1 µM, first compound 0.0316 µM
[8] = second compound 0.1 µM, first compound 0.1 µM
[9] = second compound 0.1 µM, first compound 0.316 µM
[10] = second compound 0.1 µM, first compound 1 µM
[11] = second compound 0.1 µM, first compound 3.16 µM
[12] = second compound 0.1 µM, first compound 10 µM
[13] = second compound 0.316 µM, first compound 0.0316 µM
[14] = second compound 0.316 µM, first compound 0.1 µM
[15] = second compound 0.316 µM, first compound 0.316 µM
[16] = second compound 0.316 µM, first compound 1 µM
[17] = second compound 0.316 µM, first compound 3.16 µM
[18] = second compound 0.316 µM, first compound 10 µM
[19] = second compound 1 µM, first compound 0.0316 µM
[20] = second compound 1 µM, first compound 0.1 µM
[21] = second compound 1 µM, first compound 0.316 µM
[22] = second compound 1 µM, first compound 1 µM
[23] = second compound 1 µM, first compound 3.16 µM
[24] = second compound 1 µM, first compound 10 µM
[25] = second compound 3.16 µM, first compound 0.0316 µM
[26] = second compound 3.16 µM, first compound 0.1 µM
[27] = second compound 3.16 µM, first compound 0.316 µM
[28] = second compound 3.16 µM, first compound 1 µM
[29] = second compound 3.16 µM, first compound 3.16 µM
[30] = second compound 3.16 µM, first compound 10 µM
[31] = second compound 10 µM, first compound 0.0316 µM
[32] = second compound 10 µM, first compound 0.1 µM
[33] = second compound 10 µM, first compound 0.316 µM
[34] = second compound 10 µM, first compound 1 µM
[35] = second compound 10 µM, first compound 3.16 µM
[36] = second compound 10 µM, first compound 10 µM
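Note: spheroids exposed to compounds for seven days.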
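Throughout, for viability, T/C: 100% = DMSO vehicle control viability.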

O=C(Nc1ccc(O)c(NS(=O)(=O)c2ccc(F)cc2)c1)c1ccc(-c2ccccc2)cc1 + Nc1ccc(C#CCN(C(=O)Cc2ncc(C(F)(F)F)cc2C(F)(F)F)c2ccc(F)cc2)nn1
inactive: viability, T/C [1] 117% | viability, T/C [2] 91% | viability, T/C [3] 92.4% | viability, T/C [4] 89.4% | viability, T/C [5] 99.8% | viability, T/C [6] 110% | viability, T/C [7] 95.5% | viability, T/C [8] 88.8% | viability, T/C [9] 96.7% | viability, T/C [10] 86.5% | viability, T/C [11] 89.9% | viability, T/C [12] 98% | viability, T/C [13] 97.6% | viability, T/C [14] 96% | viability, T/C [15] 97.5% | viability, T/C [16] 96.7% | viability, T/C [17] 101% | viability, T/C [18] 107% | viability, T/C [19] 101% | viability, T/C [20] 96.3% | viability, T/C [21] 92.3% | viability, T/C [22] 81.9% | viability, T/C [23] 103% | viability, T/C [24] 99.9% | viability, T/C [25] 96.3% | viability, T/C [26] 80.8% | viability, T/C [27] 104% | viability, T/C [28] 96.7% | viability, T/C [29] 103% | viability, T/C [30] 95.9% | viability, T/C [31] 103% | viability, T/C [32] 87.5% | viability, T/C [33] 91.2% | viability, T/C [34] 104% | viability, T/C [35] 97.2% | viability, T/C [36] 99.2%
> 10 µM: IC50 (second compound 0.0316 µM) | IC50 (second compound 0.1 µM) | IC50 (second compound 0.316 µM) | IC50 (second compound 1 µM) | IC50 (second compound 3.16 µM) | IC50 (second compound 10 µM)

CCc1cc2c(N3CCc4c(cc(Cn5ccnc5)cc4-c4cn(C)nc4C(F)(F)F)C3=O)ccnc2c(OC)n1 + Cc1cccc(N(C)C(=O)C2C(O)CCN2c2nc(C)cc(C(F)(F)F)c2C#N)c1
> 10 µM: IC50 (second compound 0.0316 µM) | IC50 (second compound 0.1 µM) | IC50 (second compound 0.316 µM) | IC50 (second compound 1 µM) | IC50 (second compound 3.16 µM) | IC50 (second compound 10 µM)
inactive: viability, T/C [1] 96.1% | viability, T/C [2] 82.8% | viability, T/C [3] 96.2% | viability, T/C [4] 96.2% | viability, T/C [5] 106% | viability, T/C [6] 100% | viability, T/C [7] 90.7% | viability, T/C [8] 98.5% | viability, T/C [9] 107% | viability, T/C [10] 88.6% | viability, T/C [11] 112% | viability, T/C [12] 103% | viability, T/C [13] 96.7% | viability, T/C [14] 95.2% | viability, T/C [15] 97.2% | viability, T/C [16] 106% | viability, T/C [17] 109% | viability, T/C [18] 107% | viability, T/C [19] 102% | viability, T/C [20] 127% | viability, T/C [21] 107% | viability, T/C [22] 100% | viability, T/C [23] 93.6% | viability, T/C [24] 102% | viability, T/C [25] 93.8% | viability, T/C [26] 97.3% | viability, T/C [27] 100% | viability, T/C [28] 118% | viability, T/C [29] 119% | viability, T/C [30] 106% | viability, T/C [31] 114% | viability, T/C [32] 94.7% | viability, T/C [33] 111% | viability, T/C [34] 96.8% | viability, T/C [35] 108% | viability, T/C [36] 109%

CC(=O)O[C@H]1C(=O)[C@@]2(C)[C@H]([C@H](OC(=O)c3ccccc3)[C@]3(O)C[C@H](OC(=O)[C@H](O)[C@@H](NC(=O)c4ccccc4)c4ccccc4)C(C)=C1C3(C)C)[C@]1(OC(C)=O)CO[C@@H]1C[C@@H]2O + Cc1cccc(N(C)C(=O)C2C(O)CCN2c2nc(C)cc(C(F)(F)F)c2C#N)c1
active: viability, T/C (second compound 0.0316 µM, first compound 0.0949 µM) 7.26% | viability, T/C (second compound 0.0316 µM, first compound 0.3 µM) 5.79% | viability, T/C (second compound 0.0316 µM, first compound 0.949 µM) 5.96% | viability, T/C (second compound 0.0316 µM, first compound 3 µM) 6.11% | viability, T/C (second compound 0.1 µM, first compound 0.0949 µM) 7.5% | viability, T/C (second compound 0.1 µM, first compound 0.3 µM) 5.9% | viability, T/C (second compound 0.1 µM, first compound 0.949 µM) 5.52% | viability, T/C (second compound 0.1 µM, first compound 3 µM) 6.96% | viability, T/C (second compound 0.316 µM, first compound 0.0949 µM) 6.71% | viability, T/C (second compound 0.316 µM, first compound 0.3 µM) 5.81% | viability, T/C (second compound 0.316 µM, first compound 0.949 µM) 5.53% | viability, T/C (second compound 0.316 µM, first compound 3 µM) 5.53% | viability, T/C (second compound 1 µM, first compound 0.0949 µM) 6.22% | viability, T/C (second compound 1 µM, first compound 0.3 µM) 5.71% | viability, T/C (second compound 1 µM, first compound 0.949 µM) 5.47% | viability, T/C (second compound 1 µM, first compound 3 µM) 5.47% | viability, T/C (second compound 3.16 µM, first compound 0.0949 µM) 6.13% | viability, T/C (second compound 3.16 µM, first compound 0.3 µM) 5.47% | viability, T/C (second compound 3.16 µM, first compound 0.949 µM) 5.6% | viability, T/C (second compound 3.16 µM, first compound 3 µM) 5.16% | viability, T/C (second compound 10 µM, first compound 0.03 µM) 6.86% | viability, T/C (second compound 10 µM, first compound 0.0949 µM) 5.75% | viability, T/C (second compound 10 µM, first compound 0.3 µM) 5.46% | viability, T/C (second compound 10 µM, first compound 0.949 µM) 5.93% | viability, T/C (second compound 10 µM, first compound 3 µM) 6.1%
inactive: viability, T/C (second compound 0.0316 µM, first compound 0.00949 µM) 37.5% | viability, T/C (second compound 0.0316 µM, first compound 0.03 µM) 10.3% | viability, T/C (second compound 0.1 µM, first compound 0.00949 µM) 35% | viability, T/C (second compound 0.1 µM, first compound 0.03 µM) 10.9% | viability, T/C (second compound 0.316 µM, first compound 0.00949 µM) 45.3% | viability, T/C (second compound 0.316 µM, first compound 0.03 µM) 10.2% | viability, T/C (second compound 1 µM, first compound 0.00949 µM) 34.8% | viability, T/C (second compound 1 µM, first compound 0.03 µM) 12.4% | viability, T/C (second compound 3.16 µM, first compound 0.00949 µM) 27.2% | viability, T/C (second compound 3.16 µM, first compound 0.03 µM) 10.5% | viability, T/C (second compound 10 µM, first compound 0.00949 µM) 20.3%
< 0.00949 µM: IC50 (second compound 0.0316 µM) | IC50 (second compound 0.1 µM) | IC50 (second compound 0.316 µM) | IC50 (second compound 1 µM) | IC50 (second compound 3.16 µM) | IC50 (second compound 10 µM)

COc1cccc2c1C(=O)c1c(O)c3c(c(O)c1C2=O)CC(O)(C(=O)CO)CC3OC1CC(N)C(O)C(C)O1 (stereo not drawn) + Cc1cccc(N(C)C(=O)C2C(O)CCN2c2nc(C)cc(C(F)(F)F)c2C#N)c1
0.114 µM: IC50 (second compound 0.316 µM)
0.12 µM: IC50 (second compound 1 µM)
inactive: viability, T/C [1] 104% | viability, T/C [2] 52.1% | viability, T/C [7] 107% | viability, T/C [8] 55.6% | viability, T/C [9] 11.1% | viability, T/C [13] 96.9% | viability, T/C [14] 55.2% | viability, T/C [15] 10.3% | viability, T/C [19] 95.7% | viability, T/C [20] 57% | viability, T/C [21] 12% | viability, T/C [25] 89.3% | viability, T/C [26] 57.4% | viability, T/C [31] 76.3% | viability, T/C [32] 42.1%
0.0766 µM: IC50 (second compound 10 µM)
0.106 µM: IC50 (second compound 0.0316 µM)
active: viability, T/C [3] 10.2% | viability, T/C [4] 0.23% | viability, T/C [5] 0.15% | viability, T/C [6] 0.39% | viability, T/C [10] 0.24% | viability, T/C [11] 0.11% | viability, T/C [12] 0.45% | viability, T/C [16] 0.56% | viability, T/C [17] 0.14% | viability, T/C [18] 0.43% | viability, T/C [22] 0.45% | viability, T/C [23] 0.16% | viability, T/C [24] 0.7% | viability, T/C [27] 9.06% | viability, T/C [28] 0.16% | viability, T/C [29] 1.06% | viability, T/C [30] 0.34% | viability, T/C [33] 3.48% | viability, T/C [34] 0.3% | viability, T/C [35] 0.5% | viability, T/C [36] 0.36%
0.119 µM: IC50 (second compound 3.16 µM)
0.116 µM: IC50 (second compound 0.1 µM)

Reference: PubChem BioAssay AID1963854 (Molecular Pharmacology Branch, DTP, NCI, 2024)
